These are literature values, as cited in US20260198548A1, “AEROSOL-GENERATING ARTICLE WITH AN AVERSIVE FLAVOURANT IN A REMOVABLE WRAPPER” (PHILIP MORRIS PRODUCTS S.A., priority 2022, published 2026).

The subject of this data set is test panel members (bitter taste). As to conditions: reciprocal of the dilution that still has a bitter taste; quinine hydrochloride reference set at 200,000.

Structures can show the parent of a compound that is named as a salt.

As for `C[C@@]12C[C@@H](c3ccoc3)OC(=O)[C@@H]1CC[C@]1(C)[C@H]2[C@@H]2C=C[C@@]1(O)C(=O)O2` [Columbin, columbin], the Bitterness value is listed as 60,000,000.

With `CC1=C[C@H]2[C@H]3[C@H](C(C)=C4[C@H]5OC(=O)[C@@H](C)[C@@H]5CC[C@](C)(O)[C@@H]43)[C@@]13[C@@H]2[C@@](C)(O)CC[C@H]1[C@H](C)C(=O)O[C@@H]13` [Absinthin, absinthin], the Bitterness value is 3,000,000.

For `C=C[C@H]1C[N@@]2CC[C@H]1C[C@H]2[C@H](O)c1ccnc2ccc(OC)cc12` [Quinine hydrochloride, quinine hydrochloride], the Bitterness value was 200,000.

Consider `COC1=C[C@@H](C)[C@@H]2C[C@H]3OC(=O)C[C@H]4C(C)=C(OC)C(=O)[C@H]([C@@]2(C)C1=O)[C@@]34C` [Quassin, quassin], for which the Bitterness value was 13,000,000.

amarogentin: the Bitterness value was 58,000,000.
